Measured values from US8088792B2, “Triazolopyridinone derivatives for use as stearoyl CoA desaturase inhibitors” (Gilead Sciences, Inc., priority 2008, dated 2012).

Molecular target: T1, Stearoyl-CoA desaturase (SCD) (Rattus norvegicus, UniProt P07308)
T1 construct: The rat liver microsomes were collected according to the procedure described in Ozols (1990) Methods Enzm, 182:225; from tissue
T1 sequence (P07308 1-358): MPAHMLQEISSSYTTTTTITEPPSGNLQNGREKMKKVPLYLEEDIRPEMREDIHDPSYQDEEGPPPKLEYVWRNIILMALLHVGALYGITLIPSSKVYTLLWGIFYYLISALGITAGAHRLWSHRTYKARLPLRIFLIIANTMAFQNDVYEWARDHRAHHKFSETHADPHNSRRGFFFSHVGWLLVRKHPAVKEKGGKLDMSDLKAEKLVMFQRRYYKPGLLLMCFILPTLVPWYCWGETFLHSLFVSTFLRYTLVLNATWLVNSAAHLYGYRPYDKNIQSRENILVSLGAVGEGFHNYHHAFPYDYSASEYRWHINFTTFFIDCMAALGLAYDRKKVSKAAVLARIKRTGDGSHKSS
Assay: SCD assay in rat liver microsomes ([3H]stearoyl CoA desaturation, adapted from Talamo and Bloch)
Format: biochemical
Conditions: rat liver microsomes 0.2 mg/ml final, 30 min preincubation, 45 min reaction, room temperature
Excerpt: The identification of compounds of the invention as SCD inhibitors was readily accomplished using the SCD enzyme and microsomal assay procedure described in Talamo and Bloch (1969) Analytical Biochemistry 29:300-304.
The rat liver microsomes were collected according to the procedure described in Ozols (1990) Methods Enzm, 182:225.
Male Spraque Dawley Rats were placed on regimented fasting protocol for one week to stimulate SCD enzymatic activity. 48-hour periods were alternated between feeding and fasting to induce and down-regulate SCD activity with SCD activity being induced via carbohydrate rich diet prior to liver perfusion and collection.
The rats were anesthetized with Isoflurane inhalation anesthetic, the liver perfused with cold phosphate buffered saline (PBS), weighed, and chilled in cold homogenization buffer (250 mM sucrose, 10 mM Tris, 1 mM EDTA, pH 7.6).
The livers were finely minced and placed in homogenization tube. Homogenization buffer (40 mL) was added to the homogenization tube and the liver homogenized and centrifuged in a pre-chilled […] for 10 min at 4° C.
Following centrifugation, the supernatant was collected and the pellet removed and discarded. The supernatant was centrifuge at 10,000 G for 35 minutes. Following centrifugation, the supernatant was collect and the pellet discarded. The supernatant was then centrifuged in a pre-chilled 45-Ti rotor at 130,000 G (41,000 RPM) for 90 minutes at 4° C.
The supernatant was then aspirated off and the collected microsomal pellet washed in 25 mL of Glycerol PBS (1× PBS 7.4, 20% Glycerol) and resuspended in 4-5 volumes of Glycerol PBS.
The protein concentration of the microsomal preparation was determined by BCA assay (Pierce) and the microsomes were aliquoted and stored at −80° C.
Biobeads were ground to a smaller size in a mortar and pestle and resuspended in 3.6% TCA. The beads were then filtered through […] mesh.
SCD was determined in the desaturase assay buffer. This assay buffer contained 0.1 M Tris buffer, pH 7.2, 2 mM NADH, 4.8 mM ATP, 0.5 mM CoA, 4.8 mM MgCl2, and 0.1% BSA.
1 μl of each compound of Formula I was added to an assay plate by a low volume (0.5-10 μL) multichannel pipette. A DMSO control was also prepared. The microsomes were quickly thawed and added to assay buffer so that a concentration of 0.4 mg/ml was achieved (0.2 mg/ml assay final). 50 μl of the microsome suspension in assay buffer was then added into each well in the compound assay plate, the plate was covered, and the microsomes preincubated with the compounds for 30 minutes on the orbital shaker, 50-75rpm, at room temperature. […]

Structure (SMILES) | IC50 [nM]
CC(C)(C)OC(=O)Nc1ccc2nn(Cc3ccc(Cl)c(Cl)c3)c(=O)n2c1 [Compound 4, tert-butyl 2-(3,4-dichlorobenzyl)-3-oxo-2,3-dihydro-[1,2,4]triazolo[4,3-a]pyridin-6-ylcarbamate] | 3100
CCCCCCNC(=O)c1ccc2nn(Cc3ccc(Cl)c(Cl)c3)c(=O)n2c1 [Compound 2, 2-(3,4-dichlorobenzyl)-N-hexyl-3-oxo-2,3-dihydro-[1,2,4]triazolo[4,3-a]pyridine-6-carboxamide] | 190
O=C(NCCO)c1ccc2nn(Cc3ccc(Cl)c(Cl)c3)c(=O)n2c1 [Compound 3, 2-(3,4-dichlorobenzyl)-N-(2-hydroxyethyl)-3-oxo-2,3-dihydro-[1,2,4]triazolo[4,3-a]pyridine-6-carboxamide] | 160
O=C(O)c1ccc2nn(Cc3ccc(Cl)c(Cl)c3)c(=O)n2c1 [Compound 1, 2-(3,4-dichlorobenzyl)-3-oxo-2,3-dihydro-[1,2,4]triazolo[4,3-a]pyridine-6-carboxylic acid] | 6200
